Source: US8772480B2, “Inhibitors of PI3 kinase and/or mTOR” (priority 2009, dated 2014)

Columns and labels:
Assay type in all cases: biochemical
[1] = target: ProfilerPro Kinase Selectivity Assay Kit kinases (Homo sapiens, UniProt Q16566); details: CAMK4; 1 μM compound concentration
[2] = target: ProfilerPro Kinase Selectivity Assay Kit kinases (Homo sapiens, UniProt P04049); details: cRAF; 1 μM compound concentration
[3] = target: ProfilerPro Kinase Selectivity Assay Kit kinases (Homo sapiens, UniProt P31751); details: AKT2; 1 μM compound concentration
[4] = target: ProfilerPro Kinase Selectivity Assay Kit kinases (Homo sapiens, UniProt P08581); details: cMET; 1 μM compound concentration
[5] = target: ProfilerPro Kinase Selectivity Assay Kit kinases (Homo sapiens, UniProt P49137); details: MAPKAPK2; 1 μM compound concentration
[6] = target: ProfilerPro Kinase Selectivity Assay Kit kinases (Homo sapiens, UniProt P35968); details: KDR; 1 μM compound concentration
Chain of ProfilerPro Kinase Selectivity Assay Kit kinases (Homo sapiens, UniProt P35968) (P35968 20-1356 limits assumed): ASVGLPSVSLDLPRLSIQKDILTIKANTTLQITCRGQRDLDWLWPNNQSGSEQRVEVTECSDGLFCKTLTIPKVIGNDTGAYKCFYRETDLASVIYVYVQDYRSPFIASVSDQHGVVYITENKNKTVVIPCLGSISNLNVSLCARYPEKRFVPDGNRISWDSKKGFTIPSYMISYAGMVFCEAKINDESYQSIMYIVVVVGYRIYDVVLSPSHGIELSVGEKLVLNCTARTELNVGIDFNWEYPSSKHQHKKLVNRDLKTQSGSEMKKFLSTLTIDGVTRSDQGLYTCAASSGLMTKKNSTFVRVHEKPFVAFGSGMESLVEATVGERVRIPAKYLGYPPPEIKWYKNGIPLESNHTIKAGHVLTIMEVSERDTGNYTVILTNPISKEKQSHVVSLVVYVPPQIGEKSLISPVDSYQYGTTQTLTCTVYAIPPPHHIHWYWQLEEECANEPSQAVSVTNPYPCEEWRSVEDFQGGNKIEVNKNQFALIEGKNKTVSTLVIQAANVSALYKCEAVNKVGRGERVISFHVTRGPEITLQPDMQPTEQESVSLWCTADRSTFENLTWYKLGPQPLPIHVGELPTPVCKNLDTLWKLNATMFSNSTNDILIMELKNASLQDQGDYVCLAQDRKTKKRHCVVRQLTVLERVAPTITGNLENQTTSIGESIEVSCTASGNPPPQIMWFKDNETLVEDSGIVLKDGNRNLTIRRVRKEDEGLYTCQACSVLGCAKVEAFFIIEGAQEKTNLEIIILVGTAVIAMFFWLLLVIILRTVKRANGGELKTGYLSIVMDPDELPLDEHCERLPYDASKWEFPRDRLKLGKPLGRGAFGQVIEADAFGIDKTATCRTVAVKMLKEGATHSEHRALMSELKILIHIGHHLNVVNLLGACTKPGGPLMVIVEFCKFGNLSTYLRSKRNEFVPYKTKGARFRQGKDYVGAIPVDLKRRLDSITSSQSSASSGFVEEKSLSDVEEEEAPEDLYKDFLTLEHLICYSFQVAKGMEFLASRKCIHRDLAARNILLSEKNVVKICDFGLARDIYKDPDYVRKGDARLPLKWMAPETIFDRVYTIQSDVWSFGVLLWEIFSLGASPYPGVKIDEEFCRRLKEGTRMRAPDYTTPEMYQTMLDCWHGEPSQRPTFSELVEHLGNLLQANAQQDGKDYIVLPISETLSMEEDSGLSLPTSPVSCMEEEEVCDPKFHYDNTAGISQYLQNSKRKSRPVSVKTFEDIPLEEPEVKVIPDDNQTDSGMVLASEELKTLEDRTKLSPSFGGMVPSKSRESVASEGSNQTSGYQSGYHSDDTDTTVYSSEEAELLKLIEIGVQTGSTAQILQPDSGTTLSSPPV

[7] = target: ProfilerPro Kinase Selectivity Assay Kit kinases (Homo sapiens, UniProt P06239); details: LCK; 1 μM compound concentration
Chain of ProfilerPro Kinase Selectivity Assay Kit kinases (Homo sapiens, UniProt P06239) (P06239 2-509 limits assumed): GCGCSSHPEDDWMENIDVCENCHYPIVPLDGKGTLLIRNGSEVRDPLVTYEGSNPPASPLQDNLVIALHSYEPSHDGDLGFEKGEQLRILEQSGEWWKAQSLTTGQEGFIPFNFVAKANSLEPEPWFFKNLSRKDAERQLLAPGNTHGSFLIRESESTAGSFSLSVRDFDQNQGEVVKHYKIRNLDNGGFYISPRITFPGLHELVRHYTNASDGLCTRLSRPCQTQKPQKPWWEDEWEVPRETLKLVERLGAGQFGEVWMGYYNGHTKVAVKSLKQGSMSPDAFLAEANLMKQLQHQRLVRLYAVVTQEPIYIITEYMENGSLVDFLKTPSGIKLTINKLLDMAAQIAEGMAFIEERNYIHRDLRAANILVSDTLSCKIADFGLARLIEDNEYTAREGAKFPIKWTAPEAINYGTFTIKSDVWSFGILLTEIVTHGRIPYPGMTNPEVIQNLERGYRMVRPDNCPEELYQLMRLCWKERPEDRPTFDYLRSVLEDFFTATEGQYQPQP

[8] = target: ProfilerPro Kinase Selectivity Assay Kit kinases (Homo sapiens, UniProt O96017); details: CHK2; 1 μM compound concentration
[9] = target: ProfilerPro Kinase Selectivity Assay Kit kinases (Homo sapiens, UniProt P08069); details: IGF1R; 1 μM compound concentration
[10] = target: ProfilerPro Kinase Selectivity Assay Kit kinases (Homo sapiens, UniProt P43405); details: SYK; 1 μM compound concentration
[11] = target: ProfilerPro Kinase Selectivity Assay Kit kinases (Homo sapiens, UniProt P27361); details: ERK1; 1 μM compound concentration
Chain of ProfilerPro Kinase Selectivity Assay Kit kinases (Homo sapiens, UniProt P27361) (P27361 2-379 limits assumed): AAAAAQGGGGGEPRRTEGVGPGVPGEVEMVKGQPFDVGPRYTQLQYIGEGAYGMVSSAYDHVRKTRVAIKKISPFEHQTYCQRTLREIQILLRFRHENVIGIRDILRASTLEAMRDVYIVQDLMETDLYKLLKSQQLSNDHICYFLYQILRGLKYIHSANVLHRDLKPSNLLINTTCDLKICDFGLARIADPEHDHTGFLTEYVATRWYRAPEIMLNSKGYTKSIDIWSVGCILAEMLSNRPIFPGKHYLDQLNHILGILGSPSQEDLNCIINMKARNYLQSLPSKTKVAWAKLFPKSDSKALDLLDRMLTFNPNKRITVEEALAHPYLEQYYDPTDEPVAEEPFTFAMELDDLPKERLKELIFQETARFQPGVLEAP

[12] = target: ProfilerPro Kinase Selectivity Assay Kit kinases (Homo sapiens, UniProt O95819); details: HGK; 1 μM compound concentration
Chain of ProfilerPro Kinase Selectivity Assay Kit kinases (Homo sapiens, UniProt O95819) (O95819 2-1239 limits assumed): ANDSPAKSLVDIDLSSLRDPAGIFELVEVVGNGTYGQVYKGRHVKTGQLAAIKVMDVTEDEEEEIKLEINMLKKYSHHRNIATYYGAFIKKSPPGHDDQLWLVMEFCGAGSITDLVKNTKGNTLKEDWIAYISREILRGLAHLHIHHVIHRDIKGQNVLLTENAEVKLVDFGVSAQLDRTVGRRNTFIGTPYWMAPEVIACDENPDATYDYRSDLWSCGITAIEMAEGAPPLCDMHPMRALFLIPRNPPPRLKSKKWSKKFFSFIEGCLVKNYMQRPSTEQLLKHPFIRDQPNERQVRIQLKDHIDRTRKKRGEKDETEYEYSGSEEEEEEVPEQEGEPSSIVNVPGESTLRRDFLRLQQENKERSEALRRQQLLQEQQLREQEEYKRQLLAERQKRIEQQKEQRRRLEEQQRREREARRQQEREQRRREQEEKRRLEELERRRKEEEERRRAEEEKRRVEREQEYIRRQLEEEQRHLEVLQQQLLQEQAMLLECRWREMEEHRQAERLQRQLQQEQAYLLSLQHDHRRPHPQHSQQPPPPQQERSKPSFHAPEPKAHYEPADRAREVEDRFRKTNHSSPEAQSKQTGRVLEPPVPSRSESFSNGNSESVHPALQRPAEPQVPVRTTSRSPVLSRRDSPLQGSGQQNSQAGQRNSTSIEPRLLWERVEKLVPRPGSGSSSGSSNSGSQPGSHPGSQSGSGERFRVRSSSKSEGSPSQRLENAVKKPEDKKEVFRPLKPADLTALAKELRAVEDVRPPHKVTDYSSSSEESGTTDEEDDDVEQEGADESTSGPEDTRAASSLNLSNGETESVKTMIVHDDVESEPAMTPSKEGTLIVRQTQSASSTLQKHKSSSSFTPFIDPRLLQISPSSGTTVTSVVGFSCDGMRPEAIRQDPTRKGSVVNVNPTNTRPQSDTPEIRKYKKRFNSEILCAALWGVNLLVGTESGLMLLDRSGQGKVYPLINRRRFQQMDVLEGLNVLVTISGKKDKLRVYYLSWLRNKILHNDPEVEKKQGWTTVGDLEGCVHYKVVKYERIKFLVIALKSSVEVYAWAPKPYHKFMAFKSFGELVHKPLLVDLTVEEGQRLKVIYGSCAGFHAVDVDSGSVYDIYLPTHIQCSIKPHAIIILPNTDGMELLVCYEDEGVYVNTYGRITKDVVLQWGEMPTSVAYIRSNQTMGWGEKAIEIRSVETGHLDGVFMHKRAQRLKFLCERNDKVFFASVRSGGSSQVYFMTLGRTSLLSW

[13] = target: ProfilerPro Kinase Selectivity Assay Kit kinases (Homo sapiens, UniProt P31749); details: AKT1; 1 μM compound concentration
[14] = target: ProfilerPro Kinase Selectivity Assay Kit kinases (Homo sapiens, UniProt Q16539); details: p38 alpha; 1 μM compound concentration
[15] = target: ProfilerPro Kinase Selectivity Assay Kit kinases (Homo sapiens, UniProt Q8IW41); details: PRAK; 1 μM compound concentration
[16] = target: ProfilerPro Kinase Selectivity Assay Kit kinases (Homo sapiens, UniProt Q13177); details: PAK2; 1 μM compound concentration
[17] = target: ProfilerPro Kinase Selectivity Assay Kit kinases (Homo sapiens, UniProt O14757); details: CHK1; 1 μM compound concentration
[18] = target: ProfilerPro Kinase Selectivity Assay Kit kinases (Homo sapiens, UniProt P17612); details: PKA alpha; 1 μM compound concentration
[19] = target: ProfilerPro Kinase Selectivity Assay Kit kinases (Homo sapiens, UniProt Q13188); details: MST2; 1 μM compound concentration
[20] = target: ProfilerPro Kinase Selectivity Assay Kit kinases (Homo sapiens, UniProt O75116); details: ROCK2; 1 μM compound concentration
[21] = target: ProfilerPro Kinase Selectivity Assay Kit kinases (Homo sapiens, UniProt O75582); details: MSK1; 1 μM compound concentration
[22] = target: ProfilerPro Kinase Selectivity Assay Kit kinases (Homo sapiens, UniProt Q9P0L2); details: MARK1; 1 μM compound concentration
[23] = target: ProfilerPro Kinase Selectivity Assay Kit kinases (Homo sapiens, UniProt Q06187); details: BTK; 1 μM compound concentration
Chain of ProfilerPro Kinase Selectivity Assay Kit kinases (Homo sapiens, UniProt Q06187) (Q06187 2-659 limits assumed): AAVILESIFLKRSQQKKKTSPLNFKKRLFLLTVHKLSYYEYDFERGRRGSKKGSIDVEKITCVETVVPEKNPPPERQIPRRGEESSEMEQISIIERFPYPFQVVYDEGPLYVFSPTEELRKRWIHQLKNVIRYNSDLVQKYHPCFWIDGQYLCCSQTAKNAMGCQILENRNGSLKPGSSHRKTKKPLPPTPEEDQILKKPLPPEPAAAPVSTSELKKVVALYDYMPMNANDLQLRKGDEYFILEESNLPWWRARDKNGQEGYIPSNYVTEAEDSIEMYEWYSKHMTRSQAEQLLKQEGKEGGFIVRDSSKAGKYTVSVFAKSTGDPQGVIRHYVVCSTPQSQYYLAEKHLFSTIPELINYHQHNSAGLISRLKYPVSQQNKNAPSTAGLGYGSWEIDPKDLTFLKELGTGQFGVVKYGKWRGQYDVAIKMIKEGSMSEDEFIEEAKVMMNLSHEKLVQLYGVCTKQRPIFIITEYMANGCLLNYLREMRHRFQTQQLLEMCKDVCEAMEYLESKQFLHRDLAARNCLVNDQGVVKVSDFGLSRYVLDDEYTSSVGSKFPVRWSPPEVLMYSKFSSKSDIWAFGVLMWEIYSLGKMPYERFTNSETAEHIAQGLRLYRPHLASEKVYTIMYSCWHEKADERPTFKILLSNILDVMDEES

[24] = target: ProfilerPro Kinase Selectivity Assay Kit kinases (Homo sapiens, UniProt P48730); details: CK1 delta; 1 μM compound concentration
[25] = target: ProfilerPro Kinase Selectivity Assay Kit kinases (Homo sapiens, UniProt P28482); details: ERK2; 1 μM compound concentration
Chain of ProfilerPro Kinase Selectivity Assay Kit kinases (Homo sapiens, UniProt P28482) (P28482 2-360 limits assumed): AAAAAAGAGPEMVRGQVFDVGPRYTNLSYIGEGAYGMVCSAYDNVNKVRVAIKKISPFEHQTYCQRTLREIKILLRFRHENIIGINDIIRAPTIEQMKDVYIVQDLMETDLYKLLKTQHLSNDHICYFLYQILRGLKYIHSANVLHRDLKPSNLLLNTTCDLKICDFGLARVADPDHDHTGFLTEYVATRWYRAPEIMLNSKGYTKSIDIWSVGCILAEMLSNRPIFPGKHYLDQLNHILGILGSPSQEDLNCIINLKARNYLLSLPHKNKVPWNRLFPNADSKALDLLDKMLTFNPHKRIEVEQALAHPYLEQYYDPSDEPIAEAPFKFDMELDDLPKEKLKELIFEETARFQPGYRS

[26] = target: ProfilerPro Kinase Selectivity Assay Kit kinases (Homo sapiens, UniProt Q9BZL6); details: PKD2; 1 μM compound concentration
[27] = target: ProfilerPro Kinase Selectivity Assay Kit kinases (Homo sapiens, UniProt P49841); details: GSK3 beta; 1 μM compound concentration
[28] = target: ProfilerPro Kinase Selectivity Assay Kit kinases (Homo sapiens, UniProt P07948); details: LYN; 1 μM compound concentration
Chain of ProfilerPro Kinase Selectivity Assay Kit kinases (Homo sapiens, UniProt P07948) (P07948 2-512 limits assumed): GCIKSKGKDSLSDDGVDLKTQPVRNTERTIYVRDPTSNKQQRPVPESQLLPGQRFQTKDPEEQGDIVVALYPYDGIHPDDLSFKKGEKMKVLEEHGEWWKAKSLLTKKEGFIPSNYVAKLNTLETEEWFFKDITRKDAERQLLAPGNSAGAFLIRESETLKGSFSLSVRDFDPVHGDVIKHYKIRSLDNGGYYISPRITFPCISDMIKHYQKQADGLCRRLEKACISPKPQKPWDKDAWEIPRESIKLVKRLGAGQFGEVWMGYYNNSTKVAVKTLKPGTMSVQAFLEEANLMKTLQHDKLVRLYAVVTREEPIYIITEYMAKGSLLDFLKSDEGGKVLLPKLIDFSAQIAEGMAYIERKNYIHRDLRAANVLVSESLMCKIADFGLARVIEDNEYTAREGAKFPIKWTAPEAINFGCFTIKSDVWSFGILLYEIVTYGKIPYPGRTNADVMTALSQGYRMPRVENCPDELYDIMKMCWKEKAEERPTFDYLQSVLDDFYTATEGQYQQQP

[29] = target: ProfilerPro Kinase Selectivity Assay Kit kinases (Homo sapiens, UniProt O00141); details: SGK1; 1 μM compound concentration
[30] = target: ProfilerPro Kinase Selectivity Assay Kit kinases (Homo sapiens, UniProt P06241); details: FYN; 1 μM compound concentration
[31] = target: ProfilerPro Kinase Selectivity Assay Kit kinases (Homo sapiens, UniProt P00519); details: ABL; 1 μM compound concentration

Row | POC (Percent of control) CAMK4 [1] | POC (Percent of control) cRAF [2] | POC (Percent of control) AKT2 [3] | POC (Percent of control) cMET [4] | POC (Percent of control) MAPKAPK2 [5] | POC (Percent of control) KDR [6] | POC (Percent of control) LCK [7] | POC (Percent of control) CHK2 [8] | POC (Percent of control) IGF1R [9] | POC (Percent of control) SYK [10] | POC (Percent of control) ERK1 [11] | POC (Percent of control) HGK [12] | POC (Percent of control) AKT1 [13] | POC (Percent of control) p38 alpha [14] | POC (Percent of control) PRAK [15] | POC (Percent of control) PAK2 [16] | POC (Percent of control) CHK1 [17] | POC (Percent of control) PKA alpha [18] | POC (Percent of control) MST2 [19] | POC (Percent of control) ROCK2 [20] | Structure (SMILES) | other results
1 | 109 POC | 99 POC | 93 POC | 102 POC | 100 POC | 92 POC | 101 POC | 97 POC | 98 POC | 80 POC | 100 POC | 95 POC | 102 POC | 100 POC | 99 POC | 97 POC | 99 POC | 99 POC | 98 POC | 101 POC | COc1ccc(Nc2ncc(CN3CCN(C(C)=O)CC3)cc2-c2nc(C)nc3[nH]cnc23)cn1 [Example 89, 1-(4-((6-(6-methoxypyridin-3-ylamino)-5-(2-methyl-9H-purin-6-yl)pyridin-3-yl)methyl)piperazin-1-yl)ethanone] | POC (Percent of control) MSK1 [21]: 91 POC; POC (Percent of control) MARK1 [22]: 92 POC; POC (Percent of control) BTK [23]: 102 POC; POC (Percent of control) CK1 delta [24]: 98 POC; POC (Percent of control) ERK2 [25]: 106 POC; POC (Percent of control) PKD2 [26]: 100 POC; POC (Percent of control) GSK3 beta [27]: 100 POC; POC (Percent of control) LYN [28]: 96 POC; POC (Percent of control) SGK1 [29]: 92 POC; POC (Percent of control) FYN [30]: 99 POC; POC (Percent of control) ABL [31]: 107 POC
2 | 95 POC | 100 POC | 89 POC | 94 POC | 100 POC | 91 POC | 92 POC | 94 POC | 91 POC | 99 POC | 101 POC | 85 POC | 94 POC | 92 POC | 103 POC | 98 POC | 107 POC | 99 POC | 98 POC | 106 POC | COc1ccc(Nc2ncc(Cc3ccc(S(C)(=O)=O)cc3)cc2-c2nc(C)nc3[nH]cnc23)cn1 [Example 103, N-(6-methoxypyridin-3-yl)-3-(2-methyl-9H-purin-6-yl)-5-(4-(methylsulfonyl)benzyl)pyridin-2-amine] | POC (Percent of control) MSK1 [21]: 101 POC; POC (Percent of control) MARK1 [22]: 131 POC; POC (Percent of control) BTK [23]: 97 POC; POC (Percent of control) CK1 delta [24]: 120 POC; POC (Percent of control) ERK2 [25]: 94 POC; POC (Percent of control) PKD2 [26]: 87 POC; POC (Percent of control) GSK3 beta [27]: 96 POC; POC (Percent of control) LYN [28]: 97 POC; POC (Percent of control) SGK1 [29]: 96 POC; POC (Percent of control) FYN [30]: 97 POC; POC (Percent of control) ABL [31]: 95 POC
